{
  "source": "patent US10334850B2",
  "about": "“Recombinant microorganism expressing avermectin analogue and use thereof” (Zhejiang Hisun Pharmaceutical Co., Ltd., priority 2014, dated 2019)",
  "test_system": "pine wood nematodes",
  "assay": "Toxicity assay against pine wood nematodes (immersion method)",
  "format": "in vivo",
  "settings": "24 h",
  "method": "3. Activity assay of tenvermectins against pine wood nematodes: The indoor activities of sixteen-membered macrolide compounds such as tenvermectins, avermectins, ivermectin, milbemycins, emamectin benzoate were assayed, wherein pine wood nematodes were used as the test insects. The aim was to compare the difference in activities of such medicaments on pine wood nematodes.\nTest medicaments: five kinds of medicaments, i.e. 0.5% avermectins emulsifiable concentrate, 0.5% tenvermectins emulsifiable concentrate, 0.5% ivermectin emulsifiable concentrate, 2% milbemycins emulsifiable concentrate, 2.5% emamectin benzoate microemulsion.\nTest Method: The immersion method was adopted. Five mass concentrations 2, 5, 10, 20, 50 mg/L were set for each of the medicaments, and each concentration was repeated for three times. The experimental results were subjected to statistics after 24 h (see Table 5).",
  "data": [
    {"substance": "emamectin benzoate", "values": [
      {"measurement": "Mortality at different concentrations (mg/L, %)", "setting": "2 mg/L", "value": 48.27, "unit": "%"},
      {"measurement": "Mortality at different concentrations (mg/L, %)", "setting": "5 mg/L", "value": 61.68, "unit": "%"},
      {"measurement": "Mortality at different concentrations (mg/L, %)", "setting": "10 mg/L", "value": 67.44, "unit": "%"},
      {"measurement": "Mortality at different concentrations (mg/L, %)", "setting": "20 mg/L", "value": 75, "unit": "%"},
      {"measurement": "Mortality at different concentrations (mg/L, %)", "setting": "50 mg/L", "value": 86.67, "unit": "%"}
    ]},
    {"substance": "ivermectin", "values": [
      {"measurement": "Mortality at different concentrations (mg/L, %)", "setting": "2 mg/L", "value": 18.52, "unit": "%"},
      {"measurement": "Mortality at different concentrations (mg/L, %)", "setting": "5 mg/L", "value": 42.55, "unit": "%"},
      {"measurement": "Mortality at different concentrations (mg/L, %)", "setting": "10 mg/L", "value": 57.47, "unit": "%"},
      {"measurement": "Mortality at different concentrations (mg/L, %)", "setting": "20 mg/L", "value": 58.33, "unit": "%"},
      {"measurement": "Mortality at different concentrations (mg/L, %)", "setting": "50 mg/L", "value": 78.94, "unit": "%"}
    ]}
  ]
}
